Literature values, collected in patent US20190060340A1, “NOVEL AMINOGLYCOSIDES AND USES THEREOF IN THE TREATMENT OF GENETIC DISORDERS” (Technion Research & Development Foundation Limited, priority 2007, published 2019).

Legend:
[1] = available toxicity data on aminoglycosides; unit inferred; cited from earlier work
[2] = tested on: stop mutations; settings: literature; cited from earlier work

For `NC[C@H]1O[C@H](O[C@H]2[C@H](O)[C@@H](O[C@H]3O[C@H](CO)[C@@H](O)[C@H](N)[C@H]3O)[C@H](N)C[C@@H]2N)[C@H](N)C[C@@H]1O` [tobramycin], the LD50 [1] is listed as 79 mg/kg and the “stop mutations suppression / read-through activity” value [2] is listed as “do not have stop mutations suppression activity”.
